From BindingDB's records for doi:10.7270/Q2668BKB (The Scripps Research Institute Molecular Screening Center, 2009)

Target: T1, 2'-phosphotransferase (Candida albicans (strain SC5314 / ATCC MYA-2876), UniProt Q5A7N4)
T1 sequence (Q5A7N4 whole entry): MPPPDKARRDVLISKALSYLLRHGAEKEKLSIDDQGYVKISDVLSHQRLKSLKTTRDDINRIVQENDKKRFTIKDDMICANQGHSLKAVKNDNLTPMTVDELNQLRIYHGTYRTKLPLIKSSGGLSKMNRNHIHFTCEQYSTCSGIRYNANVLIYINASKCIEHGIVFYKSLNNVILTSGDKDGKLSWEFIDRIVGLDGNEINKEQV
Test: TPT1 tRNA phosphotransferase inhibitors, dose response, biochemical, fluorescence polarization (AID 2160)

Cc1ccc2nc(N=NCc3ccc([N+](=O)[O-])o3)nc(-c3ccccc3)c2c1
IC50: > 55.7 µM
